Reference: US20210045385A1, “PYRIDAZINONE-SUBSTITUTED KETOXIMES AS HERBICIDES” (FMC Corporation, priority 2018, published 2021)

Columns and labels:
Type in all cases: in vivo
[1] = system: Italian ryegrass (Lolium multiflorum); assay: Test A preemergence, visual plant response rating; conditions: for Ryegrass, Italian plant response rating: 125 g ai/ha, preemergence, 0 to 100 scale, 0 no effect, 100 complete control; for Ryegrass, Italian plant response rating (0 to 100 scale): 500 g ai/ha Preemergence, approx. 10 days
In short: (§1)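 Greenhouse evaluation, approx. 10 days post-spray. Soil: loam + sand. Postemergence stage: 1–2 leaves, height 2–10 cm. Vehicle: non-phytotoxic solvent blend with surfactant. Score: visual injury on a 0 (no effect) to 100 (complete control) scale.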

[2] = system: barnyardgrass (Echinochloa crus-galli); assay: Test A preemergence, visual plant response rating; conditions: for Barnyardgrass plant response rating: 125 g ai/ha, preemergence, 0 to 100 scale, 0 no effect, 100 complete control; for Barnyardgrass plant response rating (0 to 100 scale): 500 g ai/ha Preemergence, approx. 10 days
In short: as §1

[3] = system: foxtail, giant (giant foxtail, Setaria faberii); assay: Test A preemergence, visual plant response rating; conditions: for Foxtail, Giant plant response rating: 125 g ai/ha, preemergence, 0 to 100 scale, 0 no effect, 100 complete control; for Foxtail, Giant plant response rating (0 to 100 scale): 500 g ai/ha Preemergence, approx. 10 days
In short: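 Greenhouse pot test in loam–sand soil mix: compound in a surfactant-containing non-phytotoxic solvent applied preemergence (directed soil spray) or postemergence (one- to two-leaf plants, 2–10 cm). Injury scored visually after ~10 days, 0–100.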

[4] = system: kochia (Kochia scoparia); assay: Test A preemergence, visual plant response rating; conditions: for Kochia plant response rating: 125 g ai/ha, preemergence, 0 to 100 scale, 0 no effect, 100 complete control; for Kochia plant response rating (0 to 100 scale): 500 g ai/ha Preemergence, approx. 10 days
In short: as §1

[5] = system: pigweed (Amaranthus retroflexus); assay: Test A preemergence, visual plant response rating; conditions: for Pigweed plant response rating: 125 g ai/ha, preemergence, 0 to 100 scale, 0 no effect, 100 complete control; for Pigweed plant response rating (0 to 100 scale): 500 g ai/ha Preemergence, approx. 10 days
In short: as §1

[6] = system: ragweed (common ragweed, Ambrosia elatior); assay: Test A preemergence, visual plant response rating; conditions: for Ragweed plant response rating: 125 g ai/ha, preemergence, 0 to 100 scale, 0 no effect, 100 complete control; for Ragweed plant response rating (0 to 100 scale): 500 g ai/ha Preemergence, approx. 10 days
In short: as §1

[7] = system: Italian ryegrass (Lolium multiflorum); assay: Test A postemergence, visual plant response rating; conditions: for Ryegrass, Italian plant response rating (0 to 100 scale): 500 g ai/ha, postemergence, 0 is no effect, 100 is complete control; for Ryegrass, Italian plant response rating: Postemergence, 125 g ai/ha, 0 to 100 scale (0 no effect, 100 complete control)
In short: as §1

[8] = system: barnyardgrass (Echinochloa crus-galli); assay: Test A postemergence, visual plant response rating; conditions: for Barnyardgrass plant response rating (0 to 100 scale): 500 g ai/ha, postemergence, 0 is no effect, 100 is complete control; for Barnyardgrass plant response rating: Postemergence, 125 g ai/ha, 0 to 100 scale (0 no effect, 100 complete control)
In short: as §1

[9] = system: blackgrass (Alopecurus myosuroides); assay: Test A postemergence, visual plant response rating; conditions: for Blackgrass plant response rating (0 to 100 scale): 500 g ai/ha, postemergence, 0 is no effect, 100 is complete control; for Blackgrass plant response rating: Postemergence, 125 g ai/ha, 0 to 100 scale (0 no effect, 100 complete control)
In short: as §1

[10] = system: corn (Zea mays); assay: Test A postemergence, visual plant response rating; conditions: for Corn plant response rating (0 to 100 scale): 500 g ai/ha, postemergence, 0 is no effect, 100 is complete control; for Corn plant response rating: Postemergence, 125 g ai/ha, 0 to 100 scale (0 no effect, 100 complete control)
In short: as §1

[11] = system: foxtail, giant (giant foxtail, Setaria faberii); assay: Test A postemergence, visual plant response rating; conditions: for Foxtail, Giant plant response rating (0 to 100 scale): 500 g ai/ha, postemergence, 0 is no effect, 100 is complete control; for Foxtail, Giant plant response rating: Postemergence, 125 g ai/ha, 0 to 100 scale (0 no effect, 100 complete control)
In short: as §1

[12] = system: galium (catchweed bedstraw, Galium aparine); assay: Test A postemergence, visual plant response rating; conditions: for Galium plant response rating (0 to 100 scale): 500 g ai/ha, postemergence, 0 is no effect, 100 is complete control; for Galium plant response rating: Postemergence, 125 g ai/ha, 0 to 100 scale (0 no effect, 100 complete control)
In short: as §1

[13] = system: kochia (Kochia scoparia); assay: Test A postemergence, visual plant response rating; conditions: for Kochia plant response rating (0 to 100 scale): 500 g ai/ha, postemergence, 0 is no effect, 100 is complete control; for Kochia plant response rating: Postemergence, 125 g ai/ha, 0 to 100 scale (0 no effect, 100 complete control)
In short: as §1

[14] = system: pigweed (Amaranthus retroflexus); assay: Test A postemergence, visual plant response rating; conditions: for Pigweed plant response rating (0 to 100 scale): 500 g ai/ha, postemergence, 0 is no effect, 100 is complete control; for Pigweed plant response rating: Postemergence, 125 g ai/ha, 0 to 100 scale (0 no effect, 100 complete control)
In short: as §1

[15] = system: ragweed (common ragweed, Ambrosia elatior); assay: Test A postemergence, visual plant response rating; conditions: for Ragweed plant response rating (0 to 100 scale): 500 g ai/ha, postemergence, 0 is no effect, 100 is complete control; for Ragweed plant response rating: Postemergence, 125 g ai/ha, 0 to 100 scale (0 no effect, 100 complete control)
In short: as §1

[16] = system: wheat (Triticum aestivum); assay: Test A postemergence, visual plant response rating; conditions: for Wheat plant response rating (0 to 100 scale): 500 g ai/ha, postemergence, 0 is no effect, 100 is complete control; for Wheat plant response rating: Postemergence, 125 g ai/ha, 0 to 100 scale (0 no effect, 100 complete control)
In short: as §1

[17] = system: barnyardgrass (Echinochloa crus-galli); assay: Test B flooded paddy test, visual plant response rating; conditions: 250 g ai/ha, Flood, applied to paddy water, 2-leaf stage, evaluated after 13 to 15 days
In short: (§2)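 Seedlings at 2 leaves; compound into paddy water (3 cm flood, maintained); 13–15 d greenhouse; visual score relative to controls.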

[18] = system: ducksalad (Heteranhera limosa); assay: as above; conditions: 250 g ai/ha, Flood, applied to paddy water, 2-leaf stage, evaluated after 13 to 15 days
In short: as §2

[19] = system: rice (Oryza sativa); assay: as above; conditions: 250 g ai/ha, Flood, applied to paddy water, 2-leaf stage, evaluated after 13 to 15 days
In short: as §2

[20] = system: sedge, umbrella (small-flower umbrella sedge, Cyperus difformis); assay: as above; conditions: 250 g ai/ha, Flood, applied to paddy water, 2-leaf stage, evaluated after 13 to 15 days
In short: as §2

Row | SMILES | Ryegrass, Italian plant response rating [1] | Ryegrass, Italian plant response rating (0 to 100 scale) [1] | Barnyardgrass plant response rating [2] | Barnyardgrass plant response rating (0 to 100 scale) [2] | Foxtail, Giant plant response rating [3] | Foxtail, Giant plant response rating (0 to 100 scale) [3] | Kochia plant response rating [4] | Kochia plant response rating (0 to 100 scale) [4] | Pigweed plant response rating [5] | Pigweed plant response rating (0 to 100 scale) [5] | Ragweed plant response rating [6] | Ragweed plant response rating (0 to 100 scale) [6] | Ryegrass, Italian plant response rating (0 to 100 scale) [7] | Ryegrass, Italian plant response rating [7] | Barnyardgrass plant response rating (0 to 100 scale) [8] | Barnyardgrass plant response rating [8] | Blackgrass plant response rating (0 to 100 scale) [9] | Blackgrass plant response rating [9] | Corn plant response rating (0 to 100 scale) [10] | Corn plant response rating [10] | also measured
1 | CON=C(c1c(O)c(C)nn(C)c1=O)c1ccc(OC)c2ccccc12 [Compound 55] | 0 | 30 | 0 | 50 | 10 | 90 | 0 | 0 | 0 | 0 | 10 | 80 | 70 | 0 | 30 | 20 | 80 | 70 | 30 | 0 | Foxtail, Giant plant response rating (0 to 100 scale) [11]: 50; Foxtail, Giant plant response rating [11]: 20; Galium plant response rating (0 to 100 scale) [12]: 70; Galium plant response rating [12]: 50; Kochia plant response rating (0 to 100 scale) [13]: 30; Kochia plant response rating [13]: 10; Pigweed plant response rating (0 to 100 scale) [14]: 20; Pigweed plant response rating [14]: 0; Ragweed plant response rating (0 to 100 scale) [15]: 30; Ragweed plant response rating [15]: 0; Wheat plant response rating (0 to 100 scale) [16]: 20; Wheat plant response rating [16]: 0; Plant response rating, Barnyardgrass (0 to 100 scale, 0 is no effect, 100 is complete control) [17]: 0; Plant response rating, Ducksalad (0 to 100 scale, 0 is no effect, 100 is complete control) [18]: 0; Plant response rating, Rice (0 to 100 scale, 0 is no effect, 100 is complete control) [19]: 0; Plant response rating, Sedge, Umbrella (0 to 100 scale, 0 is no effect, 100 is complete control) [20]: 0
2 | CON=C(c1cccc(C(F)(F)F)c1)c1c(O)c(C)nn(C)c1=O [Compound 56] | 0 | 40 | 0 | 50 | 0 | 40 | 0 | 60 | 30 | 90 | 70 | 50 | 50 | 20 | 10 | 0 | 40 | 30 | 0 | 0 | Foxtail, Giant plant response rating (0 to 100 scale) [11]: 0; Foxtail, Giant plant response rating [11]: 0; Galium plant response rating (0 to 100 scale) [12]: 80; Galium plant response rating [12]: 70; Kochia plant response rating (0 to 100 scale) [13]: 50; Kochia plant response rating [13]: 20; Pigweed plant response rating (0 to 100 scale) [14]: 70; Pigweed plant response rating [14]: 50; Ragweed plant response rating (0 to 100 scale) [15]: 50; Ragweed plant response rating [15]: 10; Wheat plant response rating (0 to 100 scale) [16]: 0; Wheat plant response rating [16]: 0; Plant response rating, Barnyardgrass (0 to 100 scale, 0 is no effect, 100 is complete control) [17]: 0; Plant response rating, Ducksalad (0 to 100 scale, 0 is no effect, 100 is complete control) [18]: 30; Plant response rating, Rice (0 to 100 scale, 0 is no effect, 100 is complete control) [19]: 20; Plant response rating, Sedge, Umbrella (0 to 100 scale, 0 is no effect, 100 is complete control) [20]: 15
3 | CON=C(c1cccc(C#N)c1)c1c(O)c(C)nn(C)c1=O [Compound 57] | 0 | 0 | 0 | 0 | 0 | 30 | 0 | 10 | 0 | 0 | 0 | 0 | 20 | 10 | 0 | 0 | 0 | 0 | 0 | 20 | Foxtail, Giant plant response rating (0 to 100 scale) [11]: 0; Foxtail, Giant plant response rating [11]: 0; Galium plant response rating (0 to 100 scale) [12]: 50; Galium plant response rating [12]: 10; Kochia plant response rating (0 to 100 scale) [13]: 50; Kochia plant response rating [13]: 0; Pigweed plant response rating (0 to 100 scale) [14]: 30; Pigweed plant response rating [14]: 30; Ragweed plant response rating (0 to 100 scale) [15]: 10; Ragweed plant response rating [15]: 0; Wheat plant response rating (0 to 100 scale) [16]: 10; Wheat plant response rating [16]: 0; Plant response rating, Barnyardgrass (0 to 100 scale, 0 is no effect, 100 is complete control) [17]: 15; Plant response rating, Ducksalad (0 to 100 scale, 0 is no effect, 100 is complete control) [18]: 0; Plant response rating, Rice (0 to 100 scale, 0 is no effect, 100 is complete control) [19]: 15; Plant response rating, Sedge, Umbrella (0 to 100 scale, 0 is no effect, 100 is complete control) [20]: 0
4 | CON=C(c1c(O)c(C)nn(C)c1=O)c1cccc2sccc12 [Compound 58] | 70 | 100 | 10 | 60 | 60 | 100 | 30 | 60 | 10 | 50 | 60 | 80 | 90 | 80 | 50 | 20 | 90 | 80 | 0 | 0 | Foxtail, Giant plant response rating (0 to 100 scale) [11]: 80; Foxtail, Giant plant response rating [11]: 40; Galium plant response rating (0 to 100 scale) [12]: 90; Galium plant response rating [12]: 80; Kochia plant response rating (0 to 100 scale) [13]: 70; Kochia plant response rating [13]: 60; Pigweed plant response rating (0 to 100 scale) [14]: 90; Pigweed plant response rating [14]: 70; Ragweed plant response rating (0 to 100 scale) [15]: 100; Ragweed plant response rating [15]: 50; Wheat plant response rating (0 to 100 scale) [16]: 80; Wheat plant response rating [16]: 40; Plant response rating, Barnyardgrass (0 to 100 scale, 0 is no effect, 100 is complete control) [17]: 0; Plant response rating, Ducksalad (0 to 100 scale, 0 is no effect, 100 is complete control) [18]: 0; Plant response rating, Rice (0 to 100 scale, 0 is no effect, 100 is complete control) [19]: 0; Plant response rating, Sedge, Umbrella (0 to 100 scale, 0 is no effect, 100 is complete control) [20]: 0
